Data on 17 compounds can be found in patent US7807675B2, “Hyaluronic acid-methotrexate conjugate” (priority 2004, dated 2010).

Test [1] relates to human synovial cells derived from OA patients (HFLS-OA). The test can be described thus: Suppressive effect on proliferation of human synovial cells (HFLS-OA) stimulated by TNF-α. Particulars: TNF-α 10 ng/mL, 5 days, [3H]-deoxyuridine uptake, concentration calculated as MTX. In kind it is cell-based. An excerpt:
(§1) Effects of the HA-MTX conjugates of the invention on cell proliferation induced by TNF-α stimulation were examined using human synovial cells (HFLS). The main lesion in rheumatoid arthritis (RA) occurs in the synovial tissue, and one of the features of RA is known to be that synovial cells abnormally proliferate to form a granulation tissue (pannus) and thereby destroy the cartilage and bone of the joint. Secondary synovitis is also observed in osteoarthritis (OA). […] Thus, a compound inhibiting the proliferation of synovial cells stimulated by an inflammatory cytokine, TNF-α, becomes a drug for suppressing the progression of the pathologic conditions of, or for treating RA and OA.
(§2) The sterile aqueous solutions of the HA-MTX conjugates in Example 3 were used as test substances. As HFLS, human synovial cells derived from RA patients (HFLS-RA, CA404-05, Lot No.: 1493) and human synovial cells derived from OA patients (HFLS-OA, CA400-05, Lot No.: 1442) were purchased from Cell Applications Ins for use.
(§3) HFLS was seeded at 5,000 cells/well on a 96-well plate (Falcon) and cultured for 3 hours in Iscove's modified Dulbecco's medium (IMDM) containing 5% FBS and 1× Antibiotic-Antimycotic (GIBOC). After cellular attachment, TNF-α (final concentration: 10 ng/mL) and each HA-MTX conjugate at each concentration was added, followed by cultivation for 5 days. Two days before the end of culture, was added 37 kBq/well of [^3H]-deoxyuridine in the cells (MORAVEK), followed by determining the uptake quantity (radioactivity) of [^3H]-deoxyuridine using a scintillation counter. Cells were recovered by unsticking them with 0.05% trypsin-0.2% EDTA.
(§4) Radioactivity determined in each of the experiments with each test substance was calculated as a relative value (% of control), using, as control, radioactivity in the group of cells cultured without adding any test substance. Since the concentration of a free carboxyl group is 2.49×10^−3 mol/L (1 g/401/L; 401 is the molecular weight of N-acetylglucosamine+glucuronic acid) for each 1 mg/mL of hyaluronic acid, the MTX concentration in each HA-MTX was calculated by multiplying the value by the conjugation rate of MTX. (For 1 mg/mL of HA-MTX conjugate with a conjugation rate of MTX of 1%, the concentration of MTX was 2.49×10^−5 mol/L) The value obtained was used to calculate the activity of inhibiting cell proliferation (IC50 value) by a 4-parameter logistic method (analysis software: GraphPad Prism 3.02 and 4.02).

Test [2] concerns mBSA-induced monoarthritis model. The test can be described thus: Suppressive effect on knee joint swelling in mBSA-induced monoarthritis model. The following applies: for AUC (% of control) (mean ± SEM): AUC of knee joint swelling, control = HA-treated group, LEW/Crj rat, 50 μL into right knee joint 7 and 1 day before and 7 days after inducing arthritis. In kind it is in vivo, rat. The method, then: An in vivo synovitis-suppressing effect of each HA-MTX conjugate of the invention was assessed on the basis of a suppressive effect on knee joint swelling in a methylated bovine serum albumin (mBSA)-induced monoarthritis model of rat. Since the mBSA-induced arthritis model employed in this experimental example is widely used as an antigen-induced arthritis model, and known to develop synovitis (Sven E. Andersson, et al., The Journal of Rheumatology (1998) 25: 9, 1772-7), the in vivo knee joint swelling-suppressing effect observed in this model conceivably represents a synovitis-suppressing effect. The compounds of the invention suppressing synovitis in vivo are useful as therapeutic drugs for joint diseases accompanied by synovitis (RA, OA, and the like).
The animal used was the LEW/Crj rat (6-week old male, from Charles River Laboratories Japan, Inc.). Into the flank of the rat was subcutaneously injected 0.5 mL of an emulsion prepared from a 2 mg/mL mBSA (Calbiochem) aqueous solution and an equal amount of Freund's complete adjuvant (Difco) 21 and 14 days before inducing arthritis. The arthritis was induced by administering 50 μL of a 2 mg/mL mBSA aqueous solution into the right knee joint. The left knee joint was untreated, and served as control in each individual. Each test substance (sterile aqueous solution) and the control drug hyaluronic acid were each administered into the right knee joint in an amount of 50 μL 7 and 1 day before and 7 days after inducing arthritis.
The determination of knee joint swelling involved measuring the widths of both knee joints with calipers to define the left/right difference (right knee diameter−left knee diameter) as a knee joint swelling. The width of each knee joint was measured at a frequency of twice a week from immediately before inducing arthritis to two weeks later to calculate AUC (an abbreviation for Area Under the Curve; here, it means an area under a curve with time for the joint swelling) from the transition thereof with time. At each measurement, the mean and standard deviation of AUC were calculated to perform an unpaired t-test between each test substance-treated group and the HA-treated group, and significant difference was judged to be present if the probability level is less than 5%. Statistical analysis used SAS version 6.12 or 8.02 (SAS Institute Japan). In addition, the AUC of each test substance was calculated, using that in the HA-treated group as a control, as a relative value (% of control) therefor.
To verify the usefulness of the HA-MTX conjugate of the invention, the suppressive effect on joint swelling was compared, in accordance with the method of Example 3, among: 1) a group treated with the HA-MTX conjugate (sterile aqueous solution) prepared in Example 3-10; 2) a group treated with a solution containing MTX of an amount equal to that of MTX contained in the HA-MTX conjugate; and 3) a group of treated with a mixture (HA+MTX) of MTX and hyaluronic acid (HA) of amounts equal to those contained in the conjugate. HA and vehicle (2 mM phosphate buffer, 0.9% NaCl) was used as controls. In this Experimental Example, Suvenyl (SVE, Chugai Pharmaceutical Co., Ltd.) was used as HA. The time course of knee joint swelling in this test is shown in FIG. 1, and the AUC thereof in FIG. 2.

For test [3], the system named is human synovial cells derived from RA patients (HFLS-RA). The test can be described thus: Suppressive effect on proliferation of human synovial cells (HFLS-RA) stimulated by TNF-α. The following applies: TNF-α 10 ng/mL, 5 days, [3H]-deoxyuridine uptake, concentration calculated as MTX. It counts as cell-based.
Description: as §1, §2, §3, §4

On to “MTX-α-PhePhe-NHC10H20O3NHCO—O—[HA] [Example 3-14]”, for which, in test [1], the IC50 is 9700 nM.

Take “MTX-α-Ile-NHC10H20O3NHCO—O—[HA] [Example 3-16]”: the concentration for half-maximal inhibition (IC50) in test [1] was 230 nM. For the same compound, the “AUC (% of control) (mean ± SEM)” value in test [2] is reported as 65.5 ± 4.4 % of control. On to “MTX-α-PhePhe-NHC10H20O3NHCO—O—[HA] [Example 3-9]”, for which the IC50 in test [1] was 180 nM. In addition, the “AUC (% of control) (mean ± SEM)” value in test [2] was 48.4 ± 2.9 % of control. “MTX-α-PhePhe-NHC10H20O3NHCO—O—[HA] [Example 3-8]”: the IC50 in test [1] is 140 nM. Take “MTX-α-PhePhe-NHC10H20O3NHCO—O—[HA] [Example 3-11]”: the concentration for half-maximal inhibition (IC50) in test [1] was 33000 nM. In test [2], the “AUC (% of control) (mean ± SEM)” value is 67.1 ± 8.0 % of control.

Take “MTX-α-PheGly-NHC10H20O3NHCO—O—[HA] [Example 3-15]”: in test [1], the half-maximal inhibitory concentration (IC50) was 450 nM. For the same compound, in test [2], the “AUC (% of control) (mean ± SEM)” value is 50.1 ± 4.9 % of control.

As for “MTX-α-PhePhe-NHC10H20O3NHCO—O—[HA] [Example 3-6]”, in test [1], the IC50 is 1400 nM. In addition, the “AUC (% of control) (mean ± SEM)” value in test [2] is given as 69.7 ± 7.2 % of control. On to “MTX-α-PhePhe-NHC10H20O3NHCO—O—[HA] [Example 3-2]”, for which the half-inhibitory concentration (IC50) in test [3] was 460 nM.

Take `CN(Cc1cnc2nc(N)nc(N)c2n1)c1ccc(C(=O)N[C@@H](CCC(=O)O)C(=O)O)cc1` [MTX alone, methotrexate]: the results for the IC50 in test [1] and in test [3] were 310 nM and 110 nM, respectively. Moreover, the “alleviating effect on synovitis” value in test [2] (Experimental Example 4, arthritis model, amounts equal to those in the conjugate of Example 3-10) was “neither MTX alone nor the mixture of HA and MTX had a sufficient alleviating effect on synovitis”. With “MTX-α-PhePhe-NHC10H20O3NHCO—O—[HA] [Example 3-3]”, the half-inhibitory concentration (IC50) in test [3] was 96 nM. Also, in test [2], the “AUC (% of control) (mean ± SEM)” value is 59.7 ± 5.4 % of control.

Consider “MTX-α-PhePhe-NHC10H20O3NHCO—O—[HA] [Example 3-12]”, for which the 50% inhibitory concentration (IC50) in test [1] is 2000 nM. The “AUC (% of control) (mean ± SEM)” value in test [2] is listed as 49.2 ± 1.2 % of control.

With “MTX-α-PhePhe-NHC10H20O3NHCO—O—[HA] [Example 3-5]”, the “AUC (% of control) (mean ± SEM)” value in test [2] was 46.6 ± 4.0 % of control.

Turning to “MTX-α-PhePhe-NHC10H20O3NHCO—O—[HA] [Example 3-10]”, the half-inhibitory concentration (IC50) in test [1] is 77 nM. For the same compound, the “AUC (% of control) (mean ± SEM)” value in test [2] is given as 42.3 ± 4.8 % of control. Further, the “suppressive effect on the joint swelling” value in test [2] (Experimental Example 4, compared to MTX alone or the mixture of MTX and HA in equal amounts, FIGS. 1 and 2) was “markedly strong suppressive effect on the joint swelling in the arthritis model compared to that of MTX alone or the mixture of MTX and HA”.

With “MTX-α-PhePhe-NHC10H20O3NHCO—O—[HA] [Example 3-4]”, the “AUC (% of control) (mean ± SEM)” value in test [2] is 53.6 ± 5.4 % of control. With “MTX-α-PhePhe-NHC10H20O3NHCO—O—[HA] [Example 3-7]”, the IC50 in test [1] is 410 nM. In addition, in test [2], the “AUC (% of control) (mean ± SEM)” value is given as 47.7 ± 4.3 % of control. Regarding “MTX-α-PhePhe-NHC10H20O3NHCO—O—[HA] [Example 3-13]”, the IC50 in test [1] was 290 nM. The “AUC (% of control) (mean ± SEM)” value in test [2] is given as 42.0 ± 4.5 % of control. In the case of “MTX-α-PhePhe-NHC10H20O3NHCO—O—[HA] [Example 3-1]”, the concentration for half-maximal inhibition (IC50) in test [3] was 1200 nM.
